From patent publication US8822409B2, “Compositions and uses thereof for the treatment of acute respiratory distress syndrome (ARDS) and clinical disorders associated with therewith” (Phylogica Limited, priority 2007, dated 2014)
“Also recorded” adds a separate entry of the source. Where no end group is shown, it is not given here. [ ]: non-standard residue; d: D form.

What was measured:
[1] = system: C57/BL6 mice given intranasal LPS (animal model of ARDS and sepsis); assay: Neutrophil infiltration in BAL after intranasal peptide, LPS-induced mouse model of ARDS and sepsis (FIG. 1); type: in vivo; details: repeated dose co-administered with LPS (10 μg/mouse), BAL 6 hours later, n=5
Description: FIG. 1 is a graphical representation showing the percentage of neutrophils (y-axis) in bronchoalveolar lavage (BAL) in 8-week to 12-week old C57/BL6 mice receiving various treatments indicated by numbers on the x-axis as follows:
Columns 1-4 (open bars): Animals (n=5 per group) received either no LPS (column 1) or a dose of LPS intranasally (10 μg/mouse) and BAL was performed 1 hour (column 2), 4 hours (column 3) or 6 hours (column 4) later. No peptide was administered to these animals.
Columns 5-7 (filled bars): Animals (n=5 per group) received an intranasal dose of 10 mg/kg body weight of retroinverted peptide analog D-PYC36-TAT (SEQ ID NO: 106; column 5) or D-PYC35-TAT (SEQ ID NO: 104; column 6), or 5 mg/kg body weight of retroinverted peptide analog D-PYC38-TAT (SEQ ID NO: 108; column 7), by a repeated dose of the same peptide analog for each group co-administered intranasally with LPS (10 μg/mouse) and BAL was performed 6 hours later.
Column 8 (hatched bars): Animals (n=5) received an intranasal dose of 10 mg/kg body weight of a scrambled version of SEQ ID NO: 106 designated D-PYC36scrambled-TAT followed 1 hour later by a repeated dose of the same peptide analog co-administered intranasally with LPS (10 μg/mouse) and BAL was performed 6 hours later.
BAL was performed on the animals using 1 ml GKN/0.2% BSA. Cell counts were obtained to determine total cell numbers and differential counts were obtained on cytocentrifuge slide preparations to elucidate the percentage neutrophils in BAL.
8-12 week old C57/B16 mice were purchased from the Animal Resource Center, Murdoch University, Western Australia and used for all experiments. All experiments were approved by the necessary institutional animal ethics committees and were performed in accordance with the National Health and Medical Research Council (NHMRC) Australian Code of Practice for the Care and Use of Animals for Scientific Purposes. […]

[2] = system: female C57/BL6 mice given intranasal LPS (animal model of ARDS and sepsis); assay: Neutrophil infiltration in BAL after intravenous peptide injection, LPS-induced mouse model of ARDS and sepsis (FIG. 2); type: in vivo; details: intravenous 10 mg/kg 20 min before intranasal LPS (40 μg/mouse), repeat injections 2 and 4 hours post-LPS, BAL 6 hours after LPS
Description: FIG. 2 is a graphical representation showing the percentage of neutrophils (y-axis) in bronchoalveolar lavage (BAL) in 8-week to 10-week old female C57/BL6 mice receiving various treatments indicated by numbers on the x-axis as follows:
Column 1 (naïve): Animals received no LPS and BAL was performed 6 hours later. No peptide was administered to these animals.
Column 2 (nil): Animals received an intranasal dose of E. coli LP (40 μg/mouse) and BAL was performed 6 hours later.
Column 3 (D36-TAT x1): Animals received a single intravenous injection of 10 mg/kg body weight of retroinverted peptide analog D-PYC36-TAT (SEQ ID NO: 106) followed 20 min later by an intranasal dose of LPS (40 μg/mouse). BAL was performed 6 hours after LPS administration.
Column 4 (D36-TATscr x1): Animals received a single intravenous injection of 10 mg/kg body weight of a peptide having a scrambled sequence relative to the retroinverted peptide analog D-PYC36-TAT (SEQ ID NO: 106) followed 20 min later by an intranasal dose of LPS (40 μg/mouse). BAL was performed 6 hours after LPS administration. […]

[3] = intranasal 10 mg/kg body weight 1 hour before LPS

## SEQ ID NO: 108: retroinverted peptide analog of SEQ ID NO: 61 fused to the TAT 10-mer with a linking glycine; AP-1 signaling inhibitor ([dR][dH][dA][dP][dL][dA][dR]G[dS][dW][dR]G[dQ][dP][dQ][dQ]G[dP][dQ][dR][dR]G[dQ][dL]GG[dR][dR][dR][dQ][dR][dR][dK][dK][dR]G)
[1]; intranasal 5 mg/kg body weight 1 hour before LPS
  percentage of neutrophils in bronchoalveolar lavage (BAL): significantly reduced; also recorded: significantly-reduced

## SEQ ID NO: 104: retroinverted peptide analog of SEQ ID NO: 57 fused to the TAT 10-mer with a linking glycine; AP-1 signaling inhibitor ([dR][dE][dR][dK][dS][dS][dS][dE][dI]GG[dS][dR][dI][dS][dQ][dY][dA]G[dR][dR][dR][dQ][dR][dR][dK][dK][dR]G; also: retro-inverso)
[1]; [3]
  percentage of neutrophils in bronchoalveolar lavage (BAL): significantly reduced; also recorded: significantly-reduced

## SEQ ID NO: 106: retroinverted peptide analog of SEQ ID NO: 59 fused to the TAT 10-mer with a linking glycine; AP-1 signaling inhibitor ([dP][dK][dI][dS][dQ][dY]G[dQ][dR][dR][dR]G[dQ][dL]GG[dR][dR][dR][dQ][dR][dR][dK][dK][dR]G)
[1]; [3]
  percentage of neutrophils in bronchoalveolar lavage (BAL): significantly reduced; also recorded: significantly-reduced
[2]
  percentage of neutrophils in bronchoalveolar lavage (BAL): significantly reduced; also recorded: significantly-reduced
